Data on 21 molecules can be found in patent publication US20260258035A1, “FIVE-MEMBERED AND SIX-MEMBERED NITROGEN-CONTAINING COMPOUND, AND INTERMEDIATE, PREPARATION METHOD AND USE THEREOF” (HANGZHOU SYNRX THERAPEUTICS BIOMEDICAL TECHNOLOGY CO., LTD., priority 2022, published 2026).

One test deals with PARG (Homo sapiens, UniProt Q86W56). As to the kind of experiment: Biochemical assay (PARG, TFMU-ADPr substrate).
A further test relates to HCC1806. The test can be described thus: Cell viability assay (CellTiter-Glo). In kind it is cell-based, Human. The settings on record: read-out: IC50 (nM) in cell viability assay. Background: Cellular ATP, detected with luciferase, serves as a proxy for viable cell number.
Where [1] appears, read: Homo sapiens, HCC1806, 168 h, HCC1806, 7 days, CellTiter-Glo.
The mark [2] stands for this setting: 4 nM PARG, 66.2 uM TFMU-ADPr, 3 min at room temperature.

Each structure is given as a SMILES string. Read-outs that look alike come from different tables or passages of the source.

PARG, sequence (Q86W56 whole entry): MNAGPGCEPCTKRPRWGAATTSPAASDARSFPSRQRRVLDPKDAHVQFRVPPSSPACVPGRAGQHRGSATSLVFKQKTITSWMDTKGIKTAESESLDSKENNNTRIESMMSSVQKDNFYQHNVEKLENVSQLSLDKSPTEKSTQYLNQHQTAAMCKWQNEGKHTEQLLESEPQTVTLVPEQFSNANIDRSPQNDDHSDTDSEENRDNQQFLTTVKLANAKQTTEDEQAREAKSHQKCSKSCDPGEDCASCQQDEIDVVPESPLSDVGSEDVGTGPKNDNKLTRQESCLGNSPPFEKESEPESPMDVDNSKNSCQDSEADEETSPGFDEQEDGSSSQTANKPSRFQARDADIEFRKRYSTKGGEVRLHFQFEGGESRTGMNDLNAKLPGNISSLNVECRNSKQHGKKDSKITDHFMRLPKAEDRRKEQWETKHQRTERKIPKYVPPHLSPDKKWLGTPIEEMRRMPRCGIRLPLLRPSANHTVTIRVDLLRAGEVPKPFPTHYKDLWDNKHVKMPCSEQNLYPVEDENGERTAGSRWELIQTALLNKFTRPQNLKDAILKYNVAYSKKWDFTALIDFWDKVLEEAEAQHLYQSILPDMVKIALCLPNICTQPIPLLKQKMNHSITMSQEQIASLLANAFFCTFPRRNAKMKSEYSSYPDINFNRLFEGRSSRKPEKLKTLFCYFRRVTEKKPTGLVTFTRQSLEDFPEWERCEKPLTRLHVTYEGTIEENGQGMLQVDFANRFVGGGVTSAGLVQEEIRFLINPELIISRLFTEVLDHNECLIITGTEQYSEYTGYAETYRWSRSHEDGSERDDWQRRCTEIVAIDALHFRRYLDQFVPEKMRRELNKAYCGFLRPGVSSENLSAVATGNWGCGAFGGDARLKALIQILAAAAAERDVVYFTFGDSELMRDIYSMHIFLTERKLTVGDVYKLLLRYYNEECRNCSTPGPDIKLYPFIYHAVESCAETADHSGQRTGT

For orientation: IC50 means the concentration at which inhibition is half-maximal. As for `Cc1nc(-c2nnc(C(F)(F)F)s2)n2cc(S(=O)(=O)NC3(C#N)CC3)cc(N3CCN(C(=O)C4CCO4)CC3)c12` (stereo not shown) [Example 172, N-(1-cyanocyclopropyl)-1-methyl-8-(4-(oxetane-2-carbonyl)piperazin-1-yl)-3-(5-(trifluoromethyl)-1,3,4-thiadiazol-2-yl)imidazo[1,5-a]pyridine-6-sulfonamide], the IC50 on PARG (PARG, TFMU-ADPr substrate) amounted to 10 nM; in the test on HCC1806 (setting [1]) it was 308 nM.

For the molecule `CC1(NS(=O)(=O)c2cc(N3CCN(C4CC4)CC3)c3cnc(-c4nnc(C(F)F)s4)n3c2)COC1` [Example 364, 8-(4-cyclopropylpiperazin-1-yl)-3-(5-(difluoromethyl)-1,3,4-thiadiazol-2-yl)-N-(3-methyloxetan-3-yl)imidazo[1,5-a]pyridine-6-sulfonamide], the IC50 on PARG (PARG, TFMU-ADPr substrate) stood at 41.4 nM; in the test with HCC1806 (setting [1]) it was 791 nM.

`CC1(NS(=O)(=O)c2cc(N3CCN(C(=O)C4NCCS4)CC3)c3cnc(-c4nnc(C(F)(F)F)s4)n3c2)CC1` (stereo not shown) [Example 326, N-(1-methylcyclopropyl)-8-(4-(thiazolidine-2-carbonyl)piperazin-1-yl)-3-(5-(trifluoromethyl)-1,3,4-thiadiazol-2-yl)imidazo[1,5-a]pyridine-6-sulfonamide]: the IC50 on PARG (PARG, TFMU-ADPr substrate) turned out to be 4.82 nM; with HCC1806 (setting [1]) it was 257 nM.

`CC1(NS(=O)(=O)c2cc(N3CCN(C(=O)[C@H]4CCN4CCCF)CC3)c3cnc(-c4nnc(C(F)(F)F)s4)n3c2)CC1` [Example 319, (R)-8-(4-(1-(3-fluoropropyl)azetidine-2-carbonyl)piperazin-1-yl)-N-(1-methylcyclopropyl)-3-(5-(trifluoromethyl)-1,3,4-thiadiazol-2-yl)imidazo[1,5-a]pyridine-6-sulfonamide]: the IC50 at PARG (PARG, TFMU-ADPr substrate) is 5.62 nM; with HCC1806 (setting [1]), 147 nM.

As to `N#CC1(NS(=O)(=O)c2cc(N3CCN(C4COC4)CC3)c3cnc(-c4nnc(C(F)F)s4)n3c2)CC1` [Example 147, N-(1-cyanocyclopropyl)-3-(5-(difluoromethyl)-1,3,4-thiadiazol-2-yl)-8-(4-(oxetan-3-yl)piperazin-1-yl)imidazo[1,5-a]pyridine-6-sulfonamide], the IC50 on PARG (setting [2]) was less than 100 nM; at PARG (PARG, TFMU-ADPr substrate), 34.1 nM; with HCC1806 (HCC1806, 7 days, CellTiter-Glo) it was 9940 nM; with HCC1806 (setting [1]), 5000 to 30000 nM.

On to `COc1ccc(C(=O)/C=C/C(=O)N2CCN(c3cc(S(=O)(=O)NC4(C#N)CC4)cn4c(-c5nnc(C(F)(F)F)s5)ncc34)CC2)cc1` [Example 211, (E)-N-(1-cyanocyclopropyl)-8-(4-(4-(4-methoxyphenyl)-4-oxobut-2-enoyl)piperazin-1-yl)-3-(5-(trifluoromethyl)-1,3,4-thiadiazol-2-yl)imidazo[1,5-a]pyridine-6-sulfonamide], for which the IC50 was 209 nM at PARG (PARG, TFMU-ADPr substrate) and 222 nM with HCC1806 (setting [1]).

Consider `COC1(C(=O)N2[C@@H](C)CN(c3cc(S(=O)(=O)NC4(C)COC4)cn4c(-c5nnc(C(F)F)s5)ncc34)C[C@@H]2C)CC1` [Example 399, 3-(5-(difluoromethyl)-1,3,4-thiadiazol-2-yl)-8-((3S,5S)-4-(1-methoxycyclopropane-1-carbonyl)-3,5-dimethylpiperazin-1-yl)-N-(3-methyloxetan-3-yl)imidazo[1,5-a]pyridine-6-sulfonamide], for which the IC50 on PARG (PARG, TFMU-ADPr substrate) was 12.6 nM; in the test on HCC1806 (setting [1]) it was 755 nM.

In the case of `CC(C)C(=O)NC1CCN(c2cc(S(=O)(=O)NC3(C#N)CC3)cn3c(-c4nnc(C(F)(F)F)s4)ncc23)CC1` [Example 268, N-(1-(6-(N-(1-cyanocyclopropyl)sulfamoyl)-3-(5-(trifluoromethyl)-1,3,4-thiadiazol-2-yl)imidazo[1,5-a]pyridin-8-yl)piperidin-4-yl)isobutyramide], the IC50 on PARG (PARG, TFMU-ADPr substrate) worked out at 100 nM; in the test with HCC1806 (setting [1]), 2210 nM.

In the case of `CC(C)C(=O)N1CCN(c2cc(S(=O)(=O)NC3(C#N)CC3)cn3c(-c4nnc(C(F)(F)F)s4)cnc23)CC1` [Example 207, N-(1-cyanocyclopropyl)-8-(4-isobutyrylpiperazin-1-yl)-3-(5-(trifluoromethyl)-1,3,4-thiadiazol-2-yl)imidazo[1,2-a]pyridine-6-sulfonamide], the IC50 against PARG (PARG, TFMU-ADPr substrate) was found to be 39.8 nM; in the test on HCC1806 (setting [1]) it was 1200 nM.

Turning to `CN1CC(C(=O)N2CCN(c3cc(S(=O)(=O)NC4(C#N)CC4)cn4c(-c5nnc(C(F)(F)F)s5)ncc34)CC2)C1` [Example 252, N-(1-cyanocyclopropyl)-8-(4-(1-methylazetidine-3-carbonyl)piperazin-1-yl)-3-(5-(trifluoromethyl)-1,3,4-thiadiazol-2-yl)imidazo[1,5-a]pyridine-6-sulfonamide], the IC50 on PARG (PARG, TFMU-ADPr substrate) came out at 16.6 nM; in the test on HCC1806 (setting [1]) it was 2000 nM.

On to `CC1(NS(=O)(=O)c2cc(N3CCN(C(=O)C4(OCC(=O)O)CC4)CC3)c3cnc(-c4nnc(C(F)F)s4)n3c2)CC1` [Example 382, 2-(1-(4-(3-(5-(difluoromethyl)-1,3,4-thiadiazol-2-yl)-6-(N-(1-methylcyclopropyl)sulfamoyl)imidazo[1,5-a]pyridin-8-yl)piperazine-1-carbonyl)cyclopropoxy)acetic acid], for which the half-maximal inhibitory concentration (IC50) turned out to be 6.55 nM at PARG (PARG, TFMU-ADPr substrate) and 828 nM in the test with HCC1806 (setting [1]).

For `COC(C)C(=O)N1CCN(c2cc(S(=O)(=O)NC3(C)CC3)cn3c(-c4nnc(C(F)(F)F)s4)ncc23)CC1` (stereo not shown) [Example 328, 8-(4-(2-methoxypropanoyl)piperazin-1-yl)-N-(1-methylcyclopropyl)-3-(5-(trifluoromethyl)-1,3,4-thiadiazol-2-yl)imidazo[1,5-a]pyridine-6-sulfonamide], the IC50 was determined as 1.21 nM against PARG (PARG, TFMU-ADPr substrate) and 55.6 nM in the test on HCC1806 (setting [1]).

For `CN(C)CCCOC1(C(=O)N2CCN(c3cc(S(=O)(=O)NC4(C)CC4)cn4c(-c5nnc(C(F)(F)F)s5)ncc34)CC2)CC1` [Example 385, 8-(4-(1-(3-(dimethylamino)propoxy)cyclopropane-1-carbonyl)piperazin-1-yl)-N-(1-methylcyclopropyl)-3-(5-(trifluoromethyl)-1,3,4-thiadiazol-2-yl)imidazo[1,5-a]pyridine-6-sulfonamide], the IC50 is 0.48 nM against PARG (PARG, TFMU-ADPr substrate) and 40 nM with HCC1806 (Homo sapiens, HCC1806, 168 h).

For `C[C@H]1CN(c2cc(S(=O)(=O)NC3(C)COC3)cn3c(-c4nnc(C(F)(F)F)s4)cnc23)C[C@H](C)N1` [Example 189, 8-((3S,5S)-3,5-dimethylpiperazin-1-yl)-N-(3-methyloxetan-3-yl)-3-(5-(trifluoromethyl)-1,3,4-thiadiazol-2-yl)imidazo[1,2-a]pyridine-6-sulfonamide], the IC50 turned out to be 3.55 nM on PARG (PARG, TFMU-ADPr substrate) and 112 nM in the test on HCC1806 (setting [1]).

For the molecule `N#CC1(NS(=O)(=O)c2cc(N3CCN(C(=O)c4ccn[nH]4)CC3)c3cnc(-c4nnc(C(F)(F)F)s4)n3c2)CC1` [Example 235, 8-(4-(1H-pyrazole-5-carbonyl)piperazin-1-yl)-N-(1-cyanocyclopropyl)-3-(5-(trifluoromethyl)-1,3,4-thiadiazol-2-yl)imidazo[1,5-a]pyridine-6-sulfonamide], the IC50 was 4.37 nM against PARG (PARG, TFMU-ADPr substrate) and 4940 nM in the test on HCC1806 (setting [1]).

Regarding `Cn1nccc1C1CCC(c2cc(S(=O)(=O)NC3(C#N)CC3)cn3c(-c4nnc(C(F)F)s4)nnc23)C1` (stereo not shown) [Example 378, N-(1-cyanocyclopropyl)-3-(5-(difluoromethyl)-1,3,4-thiadiazol-2-yl)-8-(3-(1-methyl-1H-pyrazol-5-yl)cyclopentyl)-[1,2,4]triazolo[4,3-a]pyridine-6-sulfonamide], the 50% inhibitory concentration (IC50) against PARG (setting [2]) is less than 100 nM; at PARG (PARG, TFMU-ADPr substrate) it was 27.7 nM; in the test with HCC1806 (HCC1806, 7 days, CellTiter-Glo), 6000 nM; with HCC1806 (setting [1]), 5000 to 30000 nM.

For the molecule `CC1(NS(=O)(=O)c2cc(N3CCN(C(=O)c4ccc5c(c4)OCO5)CC3)c3cnc(-c4nnc(C(F)(F)F)s4)n3c2)CC1` [Example 307, 8-(4-(benzo[d][1,3]dioxole-5-carbonyl)piperazin-1-yl)-N-(1-methylcyclopropyl)-3-(5-(trifluoromethyl)-1,3,4-thiadiazol-2-yl)imidazo[1,5-a]pyridine-6-sulfonamide], the IC50 on PARG (PARG, TFMU-ADPr substrate) was 4.13 nM; in the test on HCC1806 (setting [1]), 540 nM.

`COCC1CN(c2cc(S(=O)(=O)NC3(C)COC3)cn3c(-c4nnc(C(F)F)s4)nc(Cl)c23)CCN1` (stereo not shown) [Example 127, 1-chloro-3-(5-(difluoromethyl)-1,3,4-thiadiazol-2-yl)-8-(3-(methoxymethyl)piperazin-1-yl)-N-(3-methyloxetan-3-yl)imidazo[1,5-a]pyridine-6-sulfonamide]: the IC50 against PARG (PARG, TFMU-ADPr substrate) worked out at 1.01 nM; with HCC1806 (setting [1]), 95 nM.

Take `Cc1nc(-c2nnc(C(F)F)s2)n2cc(S(=O)(=O)NC3(C#N)CC3)cc(N3CCN(C(=O)C(C)C)CC3)c12` [Example 170, N-(1-cyanocyclopropyl)-3-(5-(difluoromethyl)-1,3,4-thiadiazol-2-yl)-8-(4-isobutyrylpiperazin-1-yl)-1-methylimidazo[1,5-a]pyridine-6-sulfonamide]: the half-maximal inhibitory concentration (IC50) on PARG (PARG, TFMU-ADPr substrate) came out at 1.66 nM; in the test on HCC1806 (setting [1]), 122 nM.

For the molecule `CN1CCC(F)(F)C1C(=O)N1CCN(c2cc(S(=O)(=O)NC3(C)CC3)cn3c(-c4nnc(C(F)(F)F)s4)ncc23)CC1` (stereo not shown) [Example 351, 8-(4-(3,3-difluoro-1-methylpyrrolidine-2-carbonyl)piperazin-1-yl)-N-(1-methylcyclopropyl)-3-(5-(trifluoromethyl)-1,3,4-thiadiazol-2-yl)imidazo[1,5-a]pyridine-6-sulfonamide], the IC50 against PARG (PARG, TFMU-ADPr substrate) was determined as 4.13 nM; in the test on HCC1806 (setting [1]), 163 nM.

On to `CC1(NS(=O)(=O)c2cc(N3CCN(C(=O)[C@H]4CCN4)CC3)c3cnc(-c4nnc(C(F)(F)F)s4)n3c2)CC1` [Example 286, (R)-8-(4-(azetidine-2-carbonyl)piperazin-1-yl)-N-(1-methylcyclopropyl)-3-(5-(trifluoromethyl)-1,3,4-thiadiazol-2-yl)imidazo[1,5-a]pyridine-6-sulfonamide], for which the IC50 at PARG (PARG, TFMU-ADPr substrate) is 3.98 nM; in the test with HCC1806 (setting [1]) it was 235 nM.
